Measurements from patent publication US5789589A, “Guanine analog phosphates” (Drug Innovation & Design, Inc., priority 1996, dated 1998).

Experiments:
TK^+ HSV 1 = test: In vitro antiviral activity (CPE) against TK^+ HSV-1 (BWVL#10186) in Vero cells; format: cell-based, Herpes type 1 virus (HSV-1), human clinical isolate; conditions: for EC50: Human alphaherpesvirus 1, TK^+ HSV 1, Vero cells, CPE, about 72 hours, read-out: ED50 (the source's name); for Activity compared with acyclovir (in words): in vitro, TK^+ HSV-1
Protocol: (§1) The following test were carried out essentially as described by Sidwell and Huffman (Sidwell, et al., App. Microbiol., 22:797-801 (1971)), and was used in the reports on the in vitro antiviral activity of ribavirin (Sidwell, et al. Science, 177:705-706 (1972); Huffman, et al., Antimicrob. Ag. Chemother., 3:235-241 (1973)).
(§2) Herpes type 1 virus (HSV-1), BWVL#10186, is a thymidine kinase positive (TK^+) human clinical isolate provided by Dr. M. Nixon Ellis, Burroughs Wellcome Co. (Research Triangle Park, N.C.). The BWVL#10168 strain of HSV-1 is a TK- patient isolate (resistant partner to 10186) that was also provided by Dr. Ellis. Both strains were prepared in Vero cells, ampuled, and frozen at -80° C. Antiviral testing was performed in Vero cells.
(§3) Vero (continuously passaged African green monkey kidney) was obtained from the American Type Culture Collection (ATCC) (Rockville, Md.). Growth medium was Medium 199, 5% FBS and 0.1% NaHCO3. Test medium was Eagle's minimum essential medium with non-essential amino acids (MEM), with 2% FBS, 0.18% NaHCO3 and 50 μg gentamicin/ml. The growth medium contained no antibiotics.
(§4) Compounds were weighed and a sufficient amount added to DMSO (American Type Culture Collection, Rockville, Md.) to prepare a solution at 20 mg/ml.
(§5) Cells were seeded to 96-well flat-bottomed tissue culture plates (Corning Glass Works, Corning, N.Y.), 0.2 ml/well, at the proper cell concentration, and incubated overnight at 37° C. in order to establish cell monolayers. The growth medium was decanted and the various dilutions of test compound were added to each well (4 wells/dilution, 0.1 ml/well). Compound diluent medium was added to cell and virus control wells (0.1 ml/well). Virus, diluted in test medium, was added to compound test wells (3 wells/dilution of compound) and to virus control wells at 0.1 ml/well. Virus was added approximately 5 minutes after compound. Test medium without virus was added to all toxicity control wells (1 well/dilution of each test compound) and to cell control wells at 0.1 ml/well. The plates were sealed with plastic wrap (SARAN™) and incubated at 37° C. in a humidified incubator with 5% CO2, 95% air atmosphere until virus control had adequate cytopathic effect (CPE) readings. This was usually achieved after 72 hours. Cells were then examined microscopically for CPE, this being scored from 0 (normal cells) to 4 (maximal, 100%, CPE). The cells in the toxicity control wells were observed microscopically for morphologic changes attributed to cytotoxicity. This cytotoxicity was graded as: T (assigned 100% toxicity), PVH (assigned 80% cytotoxicity), PH (assigned 60% cytotoxicity), P (assigned 40% cytotoxicity), PSI (assigned 20% cytotoxicity), and 0 (normal cells). The 50% effective dose (ED50) and 50% cytotoxic dose (CD50) were calculated by regression analysis of the virus CPE data and the toxicity control data, respectively.
(§6) A known active substance, acyclovir, was run in the same manner as above for each batch of compounds tested.

TK^- HSV 1 = test: In vitro antiviral activity (CPE) against TK^- acyclovir resistant HSV-1 (BWVL#10168) in Vero cells; format: cell-based, Herpes type 1 virus (HSV-1), patient isolate; conditions: for EC50: Human alphaherpesvirus 1, Vero, 72 h, read-out: ED50; for Activity relative to acyclovir (fold more active): in vitro, acyclovir resistant (TK^-) HSV-1
Protocol: as §1, §2, §3, §4, §5, §6

in vitro = format: cell-based; conditions: african green monkey, vero cells
Protocol: as §3, §4, §5

herpes simplex labialis = conditions: cited from earlier work
HSV-1 = test: Dermal HSV-1 infection in guinea pigs, topical treatment; format: in vivo, Female Hartley outbred guinea pigs; conditions: for Comparison with U.S. ZOVIRAX in all three efficacy parameters: Mann-Whitney test, p=0.0008, 0.0008, 0.001; for Reduction in lesion number (in words): guinea pigs with dermal HSV-1 lesions, compared to vehicle; for Lesion Number, % Diff vs placebo / Lesion virus titer, % Diff vs placebo / Total Lesion Area, % Diff vs placebo: positive value = reduction vs vehicle, p=0.012; for Lesion virus titer, mean: skin taken Day 4, plaque formation in VERO cells; for Lesion Number, mean: prodrug cream (1.2% Prodrug 1 or 1.87% Prodrug 2) 2x/day on Days 1, 2 and 3
Protocol: The formulation for Prodrugs 1 and 2 contained 5% EL-620 EMULPHOR (polyoxyethylated castor oil) (Rhone Poluenc), 5% CARBOPOL (Carboxypolymethylene, sodium salt) (B.F. Goodrich), 10% ethanol and 1.2% by weight Prodrug 1 (or 1.87% by weight Prodrug 2). The balance of the formulation consisted of water.
EL-620 EMULPHOR and water were mixed and ultrasonicated to give a clear emulsion, to which the ethanol was added. The prodrug was then added, and the mixture was ultrasonicated to give an opalescent emulsion. The sodium carbopol was then added to the emulsion and mixed until to homogeneity.
The placebo was prepared identically to the pharmaceutical compositions except that the prodrugs were omitted.
Female Hartley outbred guinea pigs, 400 to 450 grams, were obtained from Charles River Breeding Labs, Wilmington, Mass. Animals were anesthetized with 25 mg/kg ketamine and 5 mg/kg xylazine SQ. Hair on the dorsum from the shoulders to the rump was removed with electric clippers followed by two 5-10 minute applications of a chemical depilatory. A grid of four areas was demarcated with a pen on both sides of the spine at levels corresponding to mid back and rump.
Undiluted HSV-1 virus stock (0.035 ml) was applied to each different area and introduced through the skin at well-spaced sites at ten activations of a six-pronged spring-loaded vaccination instrument (Sterneedle, Pan Ray Division, Ormont Drug, Englewood, N.J.). The day of inoculation is Day 0. Approximately 250 mg of drug or placebo was applied to the areas according to the dosing regimen on Days 1, 2 and 3. Eight guinea pigs were used during the experiments allowing eight comparisons between each drug and its placebo. 5% ZOVIRAX ointment U.S.A. (Acyclovir) applied 4×/day was used as a control.
On Day 4 regrown hair on the dorsum of the guinea pigs was removed with one 3-4 minute application of a chemical depilatory. HSV lesions were counted and Polaroid pictures of the animals' backs were taken. The animals were sacrificed using CO2 gas and the full thickness skin of the back was removed by dissection. The square of the skin from each of the four treatment areas was placed into 15 mls of tissue culture medium with 2% FBS in an ice bath. The samples were then homogenized in a stomacher Lab Blender 80 (Tekmar Co.). Debris was pelleted by centrifugation and the supernatants collected and frozen at -70 C. until assay for infectivity by plaque formation in VERO cells.
The mean and standard deviation for number of lesions, total lesion area and lesion virus titer were computed for each treatment pair. Paired data (drug/vehicle) were evaluated by the Wilcoxon signed-rank test using percent differences between log10 derivatives of mean lesions severity at drug-treated sites compared to the vehicle-treated sites.

pig liver esterase = test: Incubation with pig liver esterase in phosphate buffered D2O, NMR; format: in vitro ADME
Herpes Simplex Virus-1 = test: Healing of vaginal lesions in mice caused by Herpes Simplex Virus-1; format: in vivo; conditions: topical application
[1] = prodrug cream 2x/day on Days 1, 2 and 3, assessed Day 4, n=8
[2] = prodrug cream 2x/day on Days 1, 2 and 3, n=8
[3] = prodrug cream 2x/day on Days 1, 2 and 3

Nc1nc2c(ncn2COCCO)c(=O)[nH]1 [Acyclovir, acyclovir, reference compound]
EC50 (TK^+ HSV 1): 1.4 µM
EC50 (TK^- HSV 1): 35 µM
CC50 (in vitro): > 100 µg/mL
Effectiveness of oral administration in treatment of cold sores (herpes simplex labialis; oral): only partially effective
Response of cold sores to topical treatment (herpes simplex labialis; topical): do not respond to the topical treatment

COC(=O)CC(OP(=O)(OCCOCn1cnc2c(=O)[nH]c(N)nc21)OC(CC(=O)OC)c1ccc(OC(C)=O)cc1)c1ccc(OC(C)=O)cc1 (stereo not drawn) [Prodrug 1]
Comparison with U.S. ZOVIRAX in all three efficacy parameters (HSV-1): worked significantly better than U.S. ZOVIRAX in all three of the efficacy parameters measured
Reduction in lesion number (in words) (HSV-1): dramatic reduction in lesion number
Lesion Number, median (HSV-1; [1]): 32.0
Total Lesion Area, mean (HSV-1; [1]): 106 mm2
Total Lesion Area, median (HSV-1; [1]): 107 mm2
Lesion virus titer, median (HSV-1; [2]): 3.17 log (pfu/ml)
Lesion Number, % Diff vs placebo (HSV-1; [3]): 45%
Lesion virus titer, % Diff vs placebo (HSV-1; [3]): 96%
Total Lesion Area, % Diff vs placebo (HSV-1; [3]): 59%
Lesion virus titer, mean (HSV-1; [2]): 3.07 log (pfu/ml)
Lesion Number, mean (HSV-1; assessed Day 4, n=8): 32
EC50 (TK^+ HSV 1): 4.6 µM
Activity compared with acyclovir (in words) (TK^+ HSV 1): same order of magnitude as acyclovir
EC50 (TK^- HSV 1): 17 µM
Activity relative to acyclovir (fold more active) (TK^- HSV 1): about 2 ×
CC50 (in vitro): > 100 µg/mL
Degradation by pig liver esterase (pig liver esterase): degraded to acyclovir monophosphate and p-hydroxycinnamic

COC(=O)CC(OP(=O)(OCCOCn1cnc2c(=O)[nH]c(N)nc21)OC(CC(=O)OC)c1ccc(OC(=O)C(C)(C)C)cc1)c1ccc(OC(=O)C(C)(C)C)cc1 (stereo not drawn) [Prodrug 2]
Comparison with U.S. ZOVIRAX in all three efficacy parameters (HSV-1): worked significantly better than U.S. ZOVIRAX in all three of the efficacy parameters measured
Reduction in lesion number (in words) (HSV-1): dramatic reduction in lesion number
Lesion Number, median (HSV-1; [1]): 36.0
Total Lesion Area, median (HSV-1; [1]): 109 mm2
Lesion virus titer, median (HSV-1; [2]): 3.12 log (pfu/ml)
Lesion Number, % Diff vs placebo (HSV-1; [3]): 35%
Lesion virus titer, % Diff vs placebo (HSV-1; [3]): 97%
Total Lesion Area, % Diff vs placebo (HSV-1; [3]): 57%
Lesion virus titer, mean (HSV-1; [2]): 2.87 log (pfu/ml)
Lesion Number, mean (HSV-1; assessed Day 4, n=8): 37
EC50 (TK^+ HSV 1): 6.3 µM
Activity compared with acyclovir (in words) (TK^+ HSV 1): same order of magnitude as acyclovir
EC50 (TK^- HSV 1): 7.5 µM
Activity relative to acyclovir (fold more active) (TK^- HSV 1): about 5 ×
CC50 (in vitro): > 100 µg/mL
Healing of vaginal lesions (Herpes Simplex Virus-1): effective in promoting the healing of vaginal lesions in mice

COC(=O)CC(O[PH](=O)OCCOCn1cnc2c(=O)[nH]c(N)nc21)c1ccc(OC(=O)C(C)(C)C)cc1 (stereo not drawn) [Prodrug 3]
EC50 (TK^+ HSV 1): 5.5 µM
Activity compared with acyclovir (in words) (TK^+ HSV 1): same order of magnitude as acyclovir
EC50 (TK^- HSV 1): 37 µM
CC50 (in vitro): > 100 µg/mL
